Data reported in ChEMBL document CHEMBL3526017, “Predicting the drug interaction potential of AMG 853, a dual antagonist of the D-prostanoid and chemoattractant receptor-homologous molecule expressed on T helper 2 cells receptors” (Drug Metab Dispos, 2012).

Legend:
[1] = Drug metabolism in human liver microsomes assessed as […]-mediated compound formation after 15 mins by LC-MS/MS analysis in presence of UDPGA; format: ADME; conditions: 0.25 h
[2] = molecular target: T1, UDP-glucuronosyltransferase 2B7 (Homo sapiens, UniProt P16662); assay: Drug metabolism assessed as human recombinant UGT2B7-mediated compound formation treated with AMG 853 after 45 mins by LC-MS/MS analysis in presence of UDPGA; format: ADME; conditions: recombinant enzyme, 0.75 h
T1 sequence (P16662 whole entry): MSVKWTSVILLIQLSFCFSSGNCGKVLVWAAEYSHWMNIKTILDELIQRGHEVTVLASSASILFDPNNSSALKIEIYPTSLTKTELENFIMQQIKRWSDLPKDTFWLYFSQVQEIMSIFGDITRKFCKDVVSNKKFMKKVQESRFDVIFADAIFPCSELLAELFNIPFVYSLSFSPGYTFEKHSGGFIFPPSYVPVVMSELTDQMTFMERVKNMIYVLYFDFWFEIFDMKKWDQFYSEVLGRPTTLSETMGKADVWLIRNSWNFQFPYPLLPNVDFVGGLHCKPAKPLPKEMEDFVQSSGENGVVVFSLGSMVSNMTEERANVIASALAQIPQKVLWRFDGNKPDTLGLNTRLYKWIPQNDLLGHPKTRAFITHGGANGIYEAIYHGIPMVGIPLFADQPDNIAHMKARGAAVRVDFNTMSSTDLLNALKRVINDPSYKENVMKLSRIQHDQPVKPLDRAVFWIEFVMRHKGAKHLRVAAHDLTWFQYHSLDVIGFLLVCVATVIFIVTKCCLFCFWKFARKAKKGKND

[3] = AUC (0 to infinity) in healthy human at 50 mg, po in presence of ketoconazole; format: ADME, organism-based; design: dose 50 mg, route oral, time infinity; conditions: plasma
[4] = molecular target: T2, UDP-glucuronosyltransferase 1A1 (Homo sapiens, UniProt P22309); assay: (§1) Drug metabolism assessed as human recombinant UGT1A1-mediated (2S,3S,4S,5R,6S)-6-(2-(4-(4-(tert-butylcarbamoyl)-2-(2-chloro-4-cyclopropylphenylsulfonamido)phenoxy)-5-chloro-2-fluorophenyl)acetoxy)-3,4,5-trihydroxytetrahydro-2H-pyran-2-carboxylic acid formation at 10 uM after 30 mins by LC-MS/MS analysis; format: ADME; conditions: recombinant enzyme, 0.5 h
T2 sequence (P22309 whole entry): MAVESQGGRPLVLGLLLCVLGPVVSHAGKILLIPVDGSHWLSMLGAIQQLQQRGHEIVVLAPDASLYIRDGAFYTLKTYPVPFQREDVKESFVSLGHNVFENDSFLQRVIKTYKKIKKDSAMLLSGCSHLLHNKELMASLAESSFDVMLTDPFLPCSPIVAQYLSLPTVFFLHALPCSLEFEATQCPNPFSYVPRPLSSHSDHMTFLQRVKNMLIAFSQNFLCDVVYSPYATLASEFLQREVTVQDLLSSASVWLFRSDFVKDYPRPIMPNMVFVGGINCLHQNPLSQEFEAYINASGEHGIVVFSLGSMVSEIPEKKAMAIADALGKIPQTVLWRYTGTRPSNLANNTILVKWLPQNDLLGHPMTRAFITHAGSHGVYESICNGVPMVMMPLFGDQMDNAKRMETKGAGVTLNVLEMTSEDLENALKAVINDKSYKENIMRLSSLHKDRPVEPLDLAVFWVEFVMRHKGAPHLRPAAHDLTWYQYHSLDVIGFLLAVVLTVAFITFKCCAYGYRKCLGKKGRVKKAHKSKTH

[5] = Drug metabolism in human liver microsomes assessed as CYP3A5*1/*1-mediated (2S,3S,4S,5R,6S)-6-(2-(4-(4-(tert-butylcarbamoyl)-2-(2-chloro-4-cyclopropylphenylsulfonamido)phenoxy)-5-chloro-2-fluorophenyl)acetoxy)-3,4,5-trihydroxytetrahydro-2H-pyran-2-carboxylic acid formation after 15 mins by LC-MS/MS analysis in presence of UDPGA and NADPH; format: ADME; conditions: 0.25 h
[6] = molecular target: T3, UDP-glucuronosyltransferase 1A3 (Homo sapiens, UniProt P35503); assay: as §1, with “UGT1A3-mediated” for “UGT1A1-mediated”; format: ADME; conditions: recombinant enzyme, 0.5 h
T3 sequence (P35503 whole entry): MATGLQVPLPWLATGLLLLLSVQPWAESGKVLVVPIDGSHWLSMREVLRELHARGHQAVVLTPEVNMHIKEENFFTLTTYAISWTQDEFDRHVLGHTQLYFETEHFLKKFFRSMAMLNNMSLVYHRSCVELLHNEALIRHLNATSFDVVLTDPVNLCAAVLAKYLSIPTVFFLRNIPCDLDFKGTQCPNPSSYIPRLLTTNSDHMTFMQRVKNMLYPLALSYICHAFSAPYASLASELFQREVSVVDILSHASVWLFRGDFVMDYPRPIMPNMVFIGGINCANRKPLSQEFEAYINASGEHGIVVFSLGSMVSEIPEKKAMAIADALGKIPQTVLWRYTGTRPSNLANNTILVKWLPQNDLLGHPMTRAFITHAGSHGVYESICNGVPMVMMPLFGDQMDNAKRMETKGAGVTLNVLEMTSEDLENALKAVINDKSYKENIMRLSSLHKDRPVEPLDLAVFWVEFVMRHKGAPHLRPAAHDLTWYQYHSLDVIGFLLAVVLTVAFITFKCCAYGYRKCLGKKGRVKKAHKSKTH

CYP2C9 = CYP2C9 (Homo sapiens, UniProt P11712); assay: Induction of CYP2C9 in human hepatocytes using diclofenac as substrate at 0.3 to 30 uM treated every 24 hrs for 2 days measured on day 5 by LC-MS/MS analysis relative to control; format: ADME, cell-based, Hepatocyte; conditions: probe diclofenac, read-out: FC
CYP2C9, sequence (P11712 whole entry): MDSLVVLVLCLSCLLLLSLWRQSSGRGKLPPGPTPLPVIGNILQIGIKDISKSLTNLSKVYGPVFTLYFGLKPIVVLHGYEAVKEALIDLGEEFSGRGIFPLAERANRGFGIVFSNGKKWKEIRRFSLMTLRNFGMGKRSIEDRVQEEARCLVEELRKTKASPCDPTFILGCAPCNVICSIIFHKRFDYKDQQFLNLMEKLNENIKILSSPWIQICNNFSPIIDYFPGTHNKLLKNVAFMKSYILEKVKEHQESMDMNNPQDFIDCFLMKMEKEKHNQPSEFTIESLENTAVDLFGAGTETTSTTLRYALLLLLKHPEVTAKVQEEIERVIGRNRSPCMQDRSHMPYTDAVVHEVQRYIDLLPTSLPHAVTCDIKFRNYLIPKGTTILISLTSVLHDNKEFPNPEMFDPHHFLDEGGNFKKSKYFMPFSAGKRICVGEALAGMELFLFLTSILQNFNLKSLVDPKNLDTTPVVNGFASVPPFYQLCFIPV

Cytochrome P450 2C8 = molecular target: T4, Cytochrome P450 2C8 (Homo sapiens, UniProt P10632); assay: Drug metabolism assessed as recombinant CYP2C8 (unknown origin)-mediated 2-(4-(4-(tert-butylcarbamoyl)-2-(2-chloro-4-(1-hydroxycyclopropyl)phenylsulfonamido)phenoxy)-5-chloro-2-fluorophenyl)acetic acid formation at 10 uM after 30 mins by LC-MS/MS analysis; format: ADME; conditions: recombinant enzyme, 0.5 h
T4 sequence (P10632 whole entry): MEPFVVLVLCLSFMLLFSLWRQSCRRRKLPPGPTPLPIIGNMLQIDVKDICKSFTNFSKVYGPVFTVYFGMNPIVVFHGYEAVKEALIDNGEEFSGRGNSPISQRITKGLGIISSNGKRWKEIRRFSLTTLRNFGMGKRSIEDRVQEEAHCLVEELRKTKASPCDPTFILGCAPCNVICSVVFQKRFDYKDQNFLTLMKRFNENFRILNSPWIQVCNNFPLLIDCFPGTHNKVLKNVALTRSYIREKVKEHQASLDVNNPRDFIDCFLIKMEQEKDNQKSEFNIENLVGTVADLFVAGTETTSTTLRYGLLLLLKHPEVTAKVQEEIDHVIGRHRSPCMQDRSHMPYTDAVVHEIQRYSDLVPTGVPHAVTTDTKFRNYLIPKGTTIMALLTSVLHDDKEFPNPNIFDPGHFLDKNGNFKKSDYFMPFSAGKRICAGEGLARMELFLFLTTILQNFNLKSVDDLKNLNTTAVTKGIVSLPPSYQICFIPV

Cytochrome P450 2C19 = Cytochrome P450 2C19 (Homo sapiens, UniProt P33261); assay: Drug metabolism assessed as recombinant CYP2C19 (unknown origin)-mediated 2-(4-(4-(tert-butylcarbamoyl)-2-(2-chloro-4-(1-hydroxycyclopropyl)phenylsulfonamido)phenoxy)-5-chloro-2-fluorophenyl)acetic acid formation at 10 uM after 30 mins by LC-MS/MS analysis; format: ADME; conditions: recombinant enzyme, 0.5 h
Cytochrome P450 2C19, sequence (P33261 whole entry): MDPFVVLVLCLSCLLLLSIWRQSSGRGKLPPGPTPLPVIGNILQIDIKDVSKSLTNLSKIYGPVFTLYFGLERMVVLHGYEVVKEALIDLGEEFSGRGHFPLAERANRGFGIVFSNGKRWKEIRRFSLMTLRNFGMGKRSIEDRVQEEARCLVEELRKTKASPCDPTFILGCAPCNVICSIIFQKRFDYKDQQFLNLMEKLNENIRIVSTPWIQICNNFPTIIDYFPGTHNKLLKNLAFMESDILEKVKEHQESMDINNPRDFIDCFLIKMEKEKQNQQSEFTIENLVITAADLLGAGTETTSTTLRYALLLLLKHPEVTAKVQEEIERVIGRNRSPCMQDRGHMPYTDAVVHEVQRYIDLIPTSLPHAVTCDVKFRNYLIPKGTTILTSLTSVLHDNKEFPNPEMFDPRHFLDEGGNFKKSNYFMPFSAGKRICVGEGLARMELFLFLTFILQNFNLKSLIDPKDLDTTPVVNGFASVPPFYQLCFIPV

Drug metabolism [1] | S50 [2] [µM] | Vmax [2] [pmol/min/mg] | AUC(0-inf) [3] [ng·h/mL] | fold induction at 48 h, up to 30 µM (CYP2C9) | Drug metabolism (Cytochrome P450 2C8) | Drug metabolism (Cytochrome P450 2C19) | Compound | Drug metabolism [4] | Drug metabolism [5] | Drug metabolism [6]
metabolite_detected | 183.4 | 13.6 | – | – | – | – | CC(C)(C)NC(=O)c1ccc(Oc2cc(F)c(CC(=O)O[C@@H]3O[C@H](C(=O)O)[C@@H](O)[C@H](O)[C@H]3O)cc2Cl)c(NS(=O)(=O)c2ccc(C3CC3)cc2Cl)c1 | – | – | –
– | – | – | 800 | 1.4 | metabolite_detected | metabolite_detected | CC(C)(C)NC(=O)c1ccc(Oc2cc(F)c(CC(=O)O)cc2Cl)c(NS(=O)(=O)c2ccc(C3CC3)cc2Cl)c1 [VIDUPIPRANT] | metabolite_detected | metabolite_not_detected | metabolite_detected
